# Measurements reported in patent US11214624B2, “Method to prevent cancer metastasis and inhibit inflammation by inhibition of p68 interaction with calmodulin” (Proda Biotech LLC, priority 2012, dated 2022).
# Entries after “also recorded” stand apart in the source; their conditions may differ. No end group written: not given here. TAT = TAT cell-permeable sequence
# Key:
# [1] = tested on: SW620 xenograft; assay: Metastasis inhibition of SW620 xenograft (human CK-18 RT-PCR of spleen extracts); format: in vivo, nude mice; conditions: for Effect on SW620 metastasis: peptide 2 mg/kg i.p. daily for two weeks
# Procedure: (§1) Metastasis inhibition of SW620 xenograft and orthotopic 4T1 tumors: All animal experiments were carried out in accordance with the guidelines of IACUC of Georgia State University. Nude mice or Balb/c mice (6 to 7 weeks old, Harlan Laboratory) were subcutaneously or orthotopically injected with 5×10^6 SW620 or 2×10^6 4T1 cells. Peptides at appropriate doses were administered to the tumor bearing mice by intraperitoneal (i.p.) injection at appropriate time intervals. Tumor formation and volumes were assessed every 2 days. Tumor volumes were measured by two perpendicular diameters of the tumors over a 4-week time course with the formula 4p/3×(width/2)^2×(length/2). The tumors and organs were collected and weighed at the end of the experiments. Tissue sections were prepared from harvested tumors and organs. Tissue sections were analyzed by either H&E or immune staining. For metastasis analyses of SW620 tumors, tissue extracts were prepared from spleens, total RNAs were extracted from the tissue extracts. RT-PCRs were performed with the isolated RNAs. For metastasis of 4T-1 cells, lung and liver were inspected.
# The peptides were used to treat a nude mice xenograft of SW620 cells at dose of 2 mg/kg (i.p. daily dose for two weeks). SW620 cells were used because they contain high p68 Y593 phosphorylation (Carter, C L, et al. Oncogene 29:5427-5436 (2010); Yang, L, et al. Mol Cancer Res 3:355-363 (2005)). It is well established that the xenograft of SW620 will metastasize to lymph nodes, and the metastasis can be analyzed by examination of SW620 cells in the spleen (Liu, K, et al. J Immunol 171:4164-4174 (2003)).
# [2] = tested on: Mouse breast cancer 4T1 cells; assay: Orthotopic 4T1 tumor metastasis model; format: in vivo, Balb/c mouse
# Procedure: as §1
# The PepIQ was very effective in inhibiting cancer metastasis with xenograft model of SW620 cells, indicating a potential application for metastasis intervention using the peptide or its derivatives. Thus, the effects of the peptide on metastasis in another cancer model was tested. Mouse breast cancer 4T1 cells were implanted into mammary gland of Balb/c mouse. Four days post-tumor implantation, the mice were treated by the PepIQ, the control peptide (PepScram), and buffer by 2 mg/kg daily dose for 14 days via i.p. injection. The mice were sacrificed at 26 days after tumor implantation. The primary tumors and major metastasis organs, lungs and liver, were collected and examined. […] The numbers of visible metastatic nodules in lung in the PepIQ treated group were much less and the nodules were much smaller than those in the PepScram and buffer treated groups (FIGS. 5B-5D). […] To test whether the PepIQ also affected the cell migration of 4T1 cells, cell migration assays were conducted.
# [3] = target: T1, p68 and CaM interaction (Homo sapiens, UniProt P0DP23); assay: CaM beads pull-down of p68; format: binding; conditions: no migration stimuli
# T1 construct: purchased Abcam; host or cells: p68 comes from SW480 whole cell lysate (endogenous)
# Procedure: CaM beads pull-down assay was used to determine whether the PepIQ peptide affected the p68 and CaM interaction. […] Thus, the p68-CaM interaction was examined under migration stimuli by co-immunoprecipitation with extracts of SW480 cells using an antibody against CaM. […] Similarly, there was a strong increase in the p68 and CaM co-precipitation upon the EGF treatment. Calmodulin beads pull-down: Whole cell lysate from SW480 cells was prepared as previously described (Yang L, et al. Cell 127:139-155 (2006); Yang L, et al. Mol Cancer Res 3:355-363 (2005)). The agarose beads conjugated with recombinant calmodulin (Abcam) were pre-washed with Ca2+ containing buffer (2 mM CaCl2, 50 mM NaCl in 50 mM Tris-HCl pH 7.5) or EGTA containing buffer (5 mM EGTA, 50 NaCl in 50 mM Tris-HCl pH 7.5). After washing, the beads were incubated with the whole cell lysates in the Ca^2+ containing or EGTA containing buffer. The beads were extensively washed after incubation. Finally, 2× SDS-loading buffer were added to the beads and the beads were heated to 85° C. for 10 minutes. The proteins that were pulled down by the CaM beads were analyzed by 10% SDS PAGE and subsequent immunoblot.
# [4] = target: T2, Myosin-II-CaM interaction (Homo sapiens, UniProt P0DP23); assay: Myosin-CaM co-immunoprecipitation in SW480 cell extracts; format: cell-based; conditions: SW480 cells with/without multiple scratch-wound
# T2 construct: endogenous in cells; host or cells: SW480
# Procedure: (§2) To test whether the PepIQ peptide disrupted the interaction of IQGAP1 or Myosin-II with CaM, cell extracts of SW480 cells that were treated by the PepIQ with/without multiple scratch-wound were co-immunoprecipitated using the antibody against CaM. […] The results also excluded a possibility that the PepIQ sequestered all CaM in the cells therefore inhibited cell migration. Thus, these experiments supported the notion that cell migration strengthened the p68-CaM interaction, and the IQ peptide disrupted the p68-CaM interaction induced by migration, thereby inhibiting cell migration.
# [5] = tested on: E-cadherin and vimentin; assay: PDGF stimulated EMT, cellular levels of EMT markers; format: cell-based
# Text: We also examined whether the peptides would abolish PDGF stimulated EMT by analyzing the cellular levels of EMT markers, E-cadherin and vimentin. […] The effect of the PepIQ peptide on cancer metastasis was confirmed by an additional treatment using the PepIQ and a control peptide with a scrambled sequence (PepScram) (FIG. 6, Table 2, Table 4).
# [6] = tested on: SW480 cells; assay: Boyden chamber cell migration assay, SW480; format: cell-based
# Procedure: (§3) Boyden chamber assay: QCM™ 24-Well Fluorimetric Cell Migration Assay kit was used to measure the migration of SW480 cells. The test cells were first treated under the different conditions in regular cell culture plates. The treated cells were re-suspended into optimum medium (without serum) and seeded into the inner chamber of the migration assay kit. The L-15 culture medium with 10% FBS was added to the outer chambers. After overnight incubation, medium in the inner chamber was removed and the cells attached to the outer bottom side were detached using the cell detachment buffer (included in the kit). The detached cells were then lysed using the cell lysis buffer (included in the kit). The amounts of the migrated cells were determined by measuring the fluorescence using λex=485 nm and λem=535 nm. The migration of the control cells with p68 knockdown was defined as 1.
# [7] = target: T3, IQGAP1-CaM interaction (Homo sapiens, UniProt P0DP23); assay: IQGAP1-CaM co-immunoprecipitation in SW480 cell extracts; format: cell-based; conditions: SW480 cells with/without multiple scratch-wound
# T3 construct: endogenous in cells; host or cells: SW480
# Procedure: as §2
# [8] = tested on: 4T1 cells; assay: 4T1 cell migration (Boyden chamber and scratch-wound assays); format: cell-based, mouse
# Procedure: as §3, with “Scratch-wound treatments: A scratch or multiple scratches using pipette tips were introduced into a 6 well cell culture plate. The cells were further cultured under serum starvation for 30 minutes, and were subsequently cultured for an additional indicated time. The scratch-treated cells were either directly visualized by microscopes or the cells were fixed and subsequently examined by immunostaining. Alternatively, the cells were collected and lysized. The prepared cellular extracts were then used for other analyses. Boyden” for “Boyden”, “1. […]” for “1.”
# [9] = tested on: SW620 xenograft; assay: Metastasis inhibition of SW620 xenograft (human CK-18 RT-PCR of spleen extracts); format: in vivo, nude mice
# [10] = target: T4, p68-CaM interaction (Homo sapiens, UniProt P0DP23); assay: p68-CaM co-immunoprecipitation in scratch-wound treated SW480 cells; format: cell-based; conditions: co-immunoprecipitation with antibody against CaM
# T4 construct: co-immunoprecipitation with extracts of SW480 cells using an antibody against CaM; endogenous in cells; host or cells: SW480
# Procedure: Scratch-wound treatments: A scratch or multiple scratches using pipette tips were introduced into a 6 well cell culture plate. The cells were further cultured under serum starvation for 30 minutes, and were subsequently cultured for an additional indicated time. The scratch-treated cells were either directly visualized by microscopes or the cells were fixed and subsequently examined by immunostaining. Alternatively, the cells were collected and lysized. The prepared cellular extracts were then used for other analyses.
# CaM beads pull-down assay was used to determine whether the PepIQ peptide affected the p68 and CaM interaction. […] Thus, the p68-CaM interaction was examined under migration stimuli by co-immunoprecipitation with extracts of SW480 cells using an antibody against CaM. […] Similarly, there was a strong increase in the p68 and CaM co-precipitation upon the EGF treatment.
# To test whether the PepIQ abolished the enhancement of the p68-CaM interaction induced by cell migration, the p68-CaM interaction was probed in cell lysate of SW480 cells that were treated by the peptide.
# [11] = tested on: Rhodamine labeled microtubules; assay: Microtubule gliding assay; format: biochemical; design: % of gliding microtubules (n = 50): dose or concentration left out as unconfirmed; conditions: for % of gliding microtubules (n = 50): only MTs with gliding speed >0.025 μm/min counted; for Mean gliding speed: only MTs with motility >0.05 μM/min
# Procedure: The slide was blocked with the blocking buffer. For the slide loaded with HA-p68, 10 μl of calmodulin with 0.5 mM of Ca^2+ was added to the slide and was incubated for 10 minutes. After loading the slide was washed with the Ca^2+ containing wash buffer to remove the unbound proteins. The prepared Rodamine labeled microtubules were then loaded onto the slide. The same Ca^2+ containing wash buffer was used to remove unbound microtubules. The movement of microtubules was then recorded by the confocal microscope.
# HA-p68 was purified from SW480 cells with/without scratch-wound treatment and attached to a glass slide. Rhodamine-labeled microtubule was then added to the glass slide. Migration of the microtubule in the presence and absence of ATP was then recorded.
# [12] = Table 1, TAT-fused peptides 2 mg/kg i.p. daily for two weeks, mice with metastasis/mice in group
# [13] = vs PepScram and buffer treated groups
substance,measurement,setting,value
PepIQ (FASGQINTFVSRGTPGYATGMHNGMNQQAPYAYPATAAAPFVSAGIQTSFRTGNPTGAYG),Metastasis rate,[1]; [12],1/5
same,Metastasis rate,"[1]; Table 2, additional treatment, PepIQ vs scrambled control peptide",2/5
same,Effect on SW620 metastasis,[1],largely diminished; also recorded: inhibited the metastasis
same,Cancer metastasis in the lung (mice affected),[2]; 2 mg/kg daily for 14 days i.p.,3 out of 4
same,Mice with no micrometastasis lesion in liver tissue sections,[2]; 2 mg/kg daily for 14 days i.p.,two out of four
same,Average numbers of micrometastasis lesions in liver,"[2]; 4 fields from three tissue sections per liver, vs buffer and PepScram groups",substantially less
same,Numbers of visible metastatic nodules in lung,[2]; [13],much less
same,Size of metastatic nodules in lung,[2]; [13],much smaller
same,Size of micrometastasis lesions in liver,[2]; vs control groups,substantially smaller
same,Change in p68-CaM interaction,[3],did not lead to dramatic changes
same,Myosin-CaM interaction,[4],not affected
same,Levels of E-cadherin and vimentin,[5],not significantly affected
same,Cell migration,[6]; SW480 cells treated with peptide,almost completely inhibited
same,IQGAP1-CaM interaction,[7],not affected
same,Cell migration of 4T1 cells,[8],dramatically reduced
"PepPhoY593: p68 aa 584-602 peptide with Y593 phosphorylation, MHNGMNQQA[p]YAYPATAAAP (SEQ ID NO:3), TAT-fused at N-terminus",Metastasis rate,[1]; [12],3/5
same,Effect on SW620 metastasis,[1],almost no effects; also recorded: no effects on cancer metastasis
same,Levels of E-cadherin and vimentin,[5],decrease in vimentin and an increase in Ecadherin
"PepY593: p68 aa 584-602 peptide MHNGMNQQAYAYPATAAAP (SEQ ID NO:2), without Y593 phosphorylation, TAT-fused at N-terminus; control peptide ({TAT}-MHNGMNQQAYAYPATAAAP)",Metastasis rate,[1]; [12],5/5
same,Levels of E-cadherin and vimentin,[5],not significantly affected
"eGFP-IQ: fusion protein containing amino acids 549-568 of p68 fused to the C-terminus of eGFP, expressed in SW620/SW480 cells (FVSAGIQTSFRTGNPTGTYQ; also: fused to C-terminus of eGFP)",Cell migration,[6]; stable expression in SW480 cells,dramatically inhibited
same,Metastasis rate,"[9]; Table 3, xenograft of SW620 cells expressing the protein",2/6
same,Effect on cancer metastasis of the SW620 xenograft,[9]; protein expressed in SW620 cells,greatly reduced
same,Increase in the p68-CaM interaction upon multiple scratch wound,[10],not dramatically strengthened
"p68/Ca^2+-CaM: HA-p68 immunopurified from scratch-wound treated SW480 cells, in the presence of CaM and Ca2+",Maximum gliding speed,[11]; ATP,0.52 ± 0.14 μm/min
same,% of gliding microtubules (n = 50),[11]; ATP,74.15 ± 1.20%
same,Mean gliding speed,[11]; ATP,0.16 ± 0.12 μm/min
same,Maximum gliding speed,[11]; no ATP,0.01 ± 0.00 μm/min
same,% of gliding microtubules (n = 50),[11]; no ATP,5.79 ± 3.13%
same,Mean gliding speed,[11]; no ATP,0.00 ± 0.00 μm/min
